Source: PubChem BioAssay AID330 (DTP/NCI, 2004)
Several values for one entry are separate records, joined by “and”; a condition that tells them apart may be missing. Equal entries are not always repeated. Inconclusive results and toxic doses are left out. Peptide text beside a SMILES is read from it. * marks the point of attachment. Trt = c1ccc(C(c2ccccc2)(c2ccccc2)*)cc1

System: P388 leukemia ip, CD2F1 mice, survival T/C
Assay: NCI In Vivo Anticancer Drug Screen. Data for tumor model P388 Leukemia (intraperitoneal) in CD2F1 (CDF1) mice
Conditions: higher = longer survival
Summary of the method: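 Mice carrying the transplanted tumor received test compound or vehicle. Survival was recorded in each group, and the value is the treated-group measurement divided by that of the vehicle-treated control group.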

[1] = endpoint: median survival time, dose: 100.0 mg/kg/injection, schedule: Q01DX001 (ip), vehicle: saline with Tween-80
[2] = endpoint: median survival time, dose: 200.0 mg/kg/injection, schedule: Q01DX001 (ip), vehicle: saline with Tween-80
[3] = endpoint: median survival time, dose: 400.0 mg/kg/injection, schedule: Q01DX001 (ip), vehicle: saline with Tween-80
[4] = endpoint: median survival time, dose: 25.0 mg/kg/injection, schedule: Q01DX009 (ip), vehicle: saline
[5] = endpoint: median survival time, dose: 50.0 mg/kg/injection, schedule: Q01DX009 (ip), vehicle: saline
[6] = endpoint: median survival time, dose: 100.0 mg/kg/injection, schedule: Q01DX009 (ip), vehicle: saline
[7] = endpoint: median survival time, dose: 50.0 mg/kg/injection, schedule: Q01DX009 (ip), vehicle: saline with Tween-80
[8] = endpoint: median survival time, dose: 100.0 mg/kg/injection, schedule: Q01DX009 (ip), vehicle: saline with Tween-80
[9] = endpoint: median survival time, dose: 200.0 mg/kg/injection, schedule: Q01DX009 (ip), vehicle: saline with Tween-80
[10] = endpoint: median survival time, dose: 12.5 mg/kg/injection, schedule: Q01DX005 (ip), vehicle: saline with Tween-80
[11] = endpoint: median survival time, dose: 25.0 mg/kg/injection, schedule: Q01DX005 (ip), vehicle: saline with Tween-80
[12] = endpoint: median survival time, dose: 50.0 mg/kg/injection, schedule: Q01DX005 (ip), vehicle: saline with Tween-80
[13] = endpoint: median survival time, dose: 25.0 mg/kg/injection, schedule: Q01DX009 (ip), vehicle: water
[14] = endpoint: median survival time, dose: 50.0 mg/kg/injection, schedule: Q01DX009 (ip), vehicle: water
[15] = endpoint: median survival time, dose: 100.0 mg/kg/injection, schedule: Q01DX009 (ip), vehicle: water
[16] = endpoint: median survival time, dose: 200.0 mg/kg/injection, schedule: Q01DX009 (ip), vehicle: water
[17] = endpoint: median survival time, dose: 6.25 mg/kg/injection, schedule: Q01DX005 (ip), vehicle: saline with Tween-80

CCCN1C(=O)C2C3C=CC(C2C1=O)C1C2C(=O)N(CCC)C(=O)C2C31 (centres undefined)
T/C [1]: 92 % of control
T/C [2]: 96 % of control
T/C [3]: 101 % of control

CCSCCCC(=O)O
T/C [4]: 100 % of control
T/C [5]: 100 % of control
T/C [6]: 100 % of control

O=C(NNc1ccccc1)c1ccccc1
T/C (endpoint: median survival time, dose: 3.13 mg/kg/injection, schedule: Q01DX009 (ip), vehicle: Klucel (hydroxypropylcellulose) (HPC)): 100 % of control
T/C (endpoint: median survival time, dose: 6.25 mg/kg/injection, schedule: Q01DX009 (ip), vehicle: Klucel (hydroxypropylcellulose) (HPC)): 98 % of control
T/C (endpoint: median survival time, dose: 12.5 mg/kg/injection, schedule: Q01DX009 (ip), vehicle: Klucel (hydroxypropylcellulose) (HPC)): 100 % of control
T/C (endpoint: median survival time, dose: 25.0 mg/kg/injection, schedule: Q01DX009 (ip), vehicle: Klucel (hydroxypropylcellulose) (HPC)): 100 % of control
T/C (endpoint: median survival time, dose: 50.0 mg/kg/injection, schedule: Q01DX009 (ip), vehicle: Klucel (hydroxypropylcellulose) (HPC)): 113 % of control

Cn1nnc(-c2ccc([N+](=O)[O-])cc2)n1
T/C (endpoint: median survival time, dose: 100.0 mg/kg/injection, schedule: Q04DX003 (ip), vehicle: Klucel (hydroxypropylcellulose) (HPC)): 105 % of control
T/C (endpoint: median survival time, dose: 200.0 mg/kg/injection, schedule: Q04DX003 (ip), vehicle: Klucel (hydroxypropylcellulose) (HPC)): 103 % of control
T/C (endpoint: median survival time, dose: 400.0 mg/kg/injection, schedule: Q04DX003 (ip), vehicle: Klucel (hydroxypropylcellulose) (HPC)): 103 % of control

c1ccc2sc(NCCSSCCNc3nc4ccccc4s3)nc2c1
T/C (endpoint: median survival time, dose: 25.0 mg/kg/injection, schedule: Q01DX009 (ip), vehicle: other): 100 % of control
T/C (endpoint: median survival time, dose: 50.0 mg/kg/injection, schedule: Q01DX009 (ip), vehicle: other): 86 % of control and 92 % of control
T/C (endpoint: median survival time, dose: 100.0 mg/kg/injection, schedule: Q01DX009 (ip), vehicle: other): 90 % of control
T/C (endpoint: median survival time, dose: 200.0 mg/kg/injection, schedule: Q01DX009 (ip), vehicle: other): 90 % of control and 93 % of control

CN1c2ccccc2C(C)(C)C2Nc3c(C#N)cnc(N)c3C21 (centres undefined)
T/C (endpoint: median survival time, dose: 50.0 mg/kg/injection, schedule: Q04DX003 (ip), vehicle: saline with Tween-80): 96 % of control
T/C (endpoint: median survival time, dose: 100.0 mg/kg/injection, schedule: Q04DX003 (ip), vehicle: saline with Tween-80): 105 % of control
T/C (endpoint: median survival time, dose: 200.0 mg/kg/injection, schedule: Q04DX003 (ip), vehicle: saline with Tween-80): 109 % of control

CC1(C)OCC(C2OC3OC(C)(C)OC3/C2=N/NC(=O)c2cc3cc(OCc4ccccc4)ccc3[nH]2)O1 (centres undefined)
T/C (endpoint: median survival time, dose: 6.25 mg/kg/injection, schedule: Q01DX005 (ip), vehicle: saline): 93 % of control
T/C (endpoint: median survival time, dose: 12.5 mg/kg/injection, schedule: Q01DX005 (ip), vehicle: saline): 93 % of control
T/C (endpoint: median survival time, dose: 25.0 mg/kg/injection, schedule: Q01DX005 (ip), vehicle: saline): 88 % of control
T/C (endpoint: median survival time, dose: 200.0 mg/kg/injection, schedule: Q01DX005 (ip), vehicle: saline): 94 % of control

CC12COC3(C)CCC(C)(OC1)N23 (centres undefined)
T/C [7]: 100 % of control
T/C [8]: 97 % of control
T/C [9]: 103 % of control

c1ccc(Cn2cc(CCc3ccncc3)c3ccccc32)cc1
T/C [4]: 100 % of control
T/C [5]: 100 % of control
T/C [6]: 100 % of control

COC(=O)c1cc(=O)nc(N/N=C/c2ccc3c(c2)OCO3)s1
T/C [10]: 99 % of control
T/C [11]: 94 % of control
T/C [12]: 94 % of control

O=C(NC(=S)Nc1c(Cl)cccc1Cl)c1cccc(Cl)c1
T/C (endpoint: median survival time, dose: 12.5 mg/kg/injection, schedule: Q01DX005 (ip), vehicle: Klucel (hydroxypropylcellulose) (HPC)): 106 % of control
T/C (endpoint: median survival time, dose: 25.0 mg/kg/injection, schedule: Q01DX005 (ip), vehicle: Klucel (hydroxypropylcellulose) (HPC)): 92 % of control
T/C (endpoint: median survival time, dose: 50.0 mg/kg/injection, schedule: Q01DX005 (ip), vehicle: Klucel (hydroxypropylcellulose) (HPC)): 94 % of control

CC1(C)CC(NC(=O)c2cc([N+](=O)[O-])c(S(=O)(=O)O)c([N+](=O)[O-])c2)CC(C)(C)N1O
T/C (endpoint: median survival time, dose: 100.0 mg/kg/injection, schedule: Q04DX002 (ip), vehicle: saline with Tween-80): 110 % of control
T/C (endpoint: median survival time, dose: 200.0 mg/kg/injection, schedule: Q04DX002 (ip), vehicle: saline with Tween-80): 100 % of control
T/C (endpoint: median survival time, dose: 400.0 mg/kg/injection, schedule: Q04DX002 (ip), vehicle: saline with Tween-80): 107 % of control

Cn1c(Cl)c(/C=N\Nc2ccc([N+](=O)[O-])cc2[N+](=O)[O-])c2ccccc21
T/C [1]: 92 % of control
T/C [2]: 93 % of control
T/C [3]: 91 % of control

CC(C)(C)N=C(Cc1ccccc1)N1CCOCC1
T/C [7]: 119 % of control
T/C [8]: 96 % of control
T/C [9]: 90 % of control

O=C1C=CC(=O)C(C2OC(=O)C(Br)=C2Br)=C1 (centres undefined)
T/C (endpoint: median survival time, dose: 50.0 mg/kg/injection, schedule: Q01DX005 (ip), vehicle: distilled water + Tween-80): 114 % of control
T/C (endpoint: median survival time, dose: 100.0 mg/kg/injection, schedule: Q01DX005 (ip), vehicle: distilled water + Tween-80): 115 % of control

COc1ccc(C(=O)/C=C/c2cc3c(cc2OCc2ccccc2)OCO3)c(OCc2ccccc2)c1
T/C (endpoint: median survival time, dose: 75.0 mg/kg/injection, schedule: Q04DX003 (ip), vehicle: Klucel (hydroxypropylcellulose) (HPC)): 99 % of control
T/C (endpoint: median survival time, dose: 150.0 mg/kg/injection, schedule: Q04DX003 (ip), vehicle: Klucel (hydroxypropylcellulose) (HPC)): 94 % of control
T/C (endpoint: median survival time, dose: 300.0 mg/kg/injection, schedule: Q04DX003 (ip), vehicle: Klucel (hydroxypropylcellulose) (HPC)): 90 % of control

COc1cc2ccc(/C=N/NC(N)=S)cc2cc1OC
T/C (endpoint: median survival time, dose: 12.5 mg/kg/injection, schedule: Q01DX009 (ip), vehicle: water): 96 % of control
T/C [13]: 90 % of control
T/C [14]: 96 % of control
T/C [15]: 91 % of control
T/C [16]: 89 % of control

CC(C)(C)C1C/C(=C2\COC(=O)C2=O)NN1c1ccccc1 (centres undefined)
T/C [5]: 92 % of control
T/C [6]: 91 % of control
T/C (endpoint: median survival time, dose: 200.0 mg/kg/injection, schedule: Q01DX009 (ip), vehicle: saline): 91 % of control

C=CCN(N=Nc1ccc(Cl)cc1)c1ccc(Cl)cc1
T/C (endpoint: median survival time, dose: 25.0 mg/kg/injection, schedule: Q01DX009 (ip), vehicle: saline with Tween-80): 104 % of control and 91 % of control
T/C [7]: 107 % of control and 117 % of control
T/C [8]: 108 % of control and 111 % of control
T/C [9]: 110 % of control and 117 % of control and 118 % of control

COC(=O)C(CC(C)C)NC(=O)C(N)CSC(c1ccccc1)(c1ccccc1)c1ccccc1 (centres undefined) (H-Cys(Trt)-Leu-OMe; configuration not given here)
T/C (endpoint: median survival time, dose: 60.0 mg/kg/injection, schedule: Q01DX005 (ip), vehicle: Klucel (hydroxypropylcellulose) (HPC)): 113 % of control

CCOC(=O)C(NC(N)=O)C(=O)OCC
T/C [13]: 89 % of control
T/C [14]: 99 % of control
T/C [15]: 100 % of control
T/C [16]: 105 % of control
T/C (endpoint: median survival time, dose: 400.0 mg/kg/injection, schedule: Q01DX009 (ip), vehicle: water): 91 % of control

CN(/N=C/c1ccc(Cl)cc1)P(=O)(N1CC1)N1CC1
T/C [17]: 116 % of control
T/C [10]: 116 % of control
T/C [12]: 171 % of control

O=c1c(-c2cccc(O)c2O)coc2cc(OC3OC(CO)C(O)C(O)C3O)ccc12 (centres undefined)
T/C (endpoint: median survival time, dose: 60.0 mg/kg/injection, schedule: Q01DX005 (ip), vehicle: saline with Tween-80): 100 % of control
T/C (endpoint: median survival time, dose: 120.0 mg/kg/injection, schedule: Q01DX005 (ip), vehicle: saline with Tween-80): 100 % of control
T/C (endpoint: median survival time, dose: 240.0 mg/kg/injection, schedule: Q01DX005 (ip), vehicle: saline with Tween-80): 97 % of control

O=C1CN(c2ccccc2)C(=O)CN1/N=C/c1ccc[nH]1
T/C [17]: 95 % of control
T/C [10]: 100 % of control
T/C [11]: 97 % of control

CN(CC1CNc2nc(N)[nH]c(=O)c2N1C=O)c1ccc(C(=O)NC(CCC(=O)O)C(=O)O)cc1 (centres undefined)
T/C (endpoint: median survival time, dose: 50.0 mg/kg/injection, schedule: Q01DX009 (ip), vehicle: sodium bicarbonate): 101 % of control
T/C (endpoint: median survival time, dose: 100.0 mg/kg/injection, schedule: Q01DX009 (ip), vehicle: sodium bicarbonate): 106 % of control
T/C (endpoint: median survival time, dose: 200.0 mg/kg/injection, schedule: Q01DX009 (ip), vehicle: sodium bicarbonate): 108 % of control

CCOC(=O)C1=C(C)/C(=C/c2[n-]c(C)c(C(=O)OCC)c2C)N=C1C.CCOC(=O)C1=C(C)/C(=C/c2[n-]c(C)c(C(=O)OCC)c2C)N=C1C.[Co+2]
T/C (endpoint: mean survival time, dose: 12.5 mg/kg/injection, schedule: Q01DX001 (ip), vehicle: saline with Tween-80): 95 % of control
T/C (endpoint: mean survival time, dose: 25.0 mg/kg/injection, schedule: Q01DX001 (ip), vehicle: saline with Tween-80): 92 % of control
T/C (endpoint: mean survival time, dose: 50.0 mg/kg/injection, schedule: Q01DX001 (ip), vehicle: saline with Tween-80): 90 % of control
